Key:
Full length Human HDAC6 = target: T1, Full length Human HDAC6 (Homo sapiens, UniProt Q9UBN7); experiment: Caliper endpoint assay for HDAC enzymatic activity (HDAC6); type: biochemical; conditions: for IC50: in vitro enzymatic, Caliper endpoint assay, 30 min pre-incubation, 1 μM substrate peptide; for Selectivity (6 v 8): ratio of HDAC8 IC50/HDAC6 IC50
T1 construct: Full length Human HDAC6; FLAG (C); host or cells: baculovirus expression system
T1 sequence (Q9UBN7 1-1215): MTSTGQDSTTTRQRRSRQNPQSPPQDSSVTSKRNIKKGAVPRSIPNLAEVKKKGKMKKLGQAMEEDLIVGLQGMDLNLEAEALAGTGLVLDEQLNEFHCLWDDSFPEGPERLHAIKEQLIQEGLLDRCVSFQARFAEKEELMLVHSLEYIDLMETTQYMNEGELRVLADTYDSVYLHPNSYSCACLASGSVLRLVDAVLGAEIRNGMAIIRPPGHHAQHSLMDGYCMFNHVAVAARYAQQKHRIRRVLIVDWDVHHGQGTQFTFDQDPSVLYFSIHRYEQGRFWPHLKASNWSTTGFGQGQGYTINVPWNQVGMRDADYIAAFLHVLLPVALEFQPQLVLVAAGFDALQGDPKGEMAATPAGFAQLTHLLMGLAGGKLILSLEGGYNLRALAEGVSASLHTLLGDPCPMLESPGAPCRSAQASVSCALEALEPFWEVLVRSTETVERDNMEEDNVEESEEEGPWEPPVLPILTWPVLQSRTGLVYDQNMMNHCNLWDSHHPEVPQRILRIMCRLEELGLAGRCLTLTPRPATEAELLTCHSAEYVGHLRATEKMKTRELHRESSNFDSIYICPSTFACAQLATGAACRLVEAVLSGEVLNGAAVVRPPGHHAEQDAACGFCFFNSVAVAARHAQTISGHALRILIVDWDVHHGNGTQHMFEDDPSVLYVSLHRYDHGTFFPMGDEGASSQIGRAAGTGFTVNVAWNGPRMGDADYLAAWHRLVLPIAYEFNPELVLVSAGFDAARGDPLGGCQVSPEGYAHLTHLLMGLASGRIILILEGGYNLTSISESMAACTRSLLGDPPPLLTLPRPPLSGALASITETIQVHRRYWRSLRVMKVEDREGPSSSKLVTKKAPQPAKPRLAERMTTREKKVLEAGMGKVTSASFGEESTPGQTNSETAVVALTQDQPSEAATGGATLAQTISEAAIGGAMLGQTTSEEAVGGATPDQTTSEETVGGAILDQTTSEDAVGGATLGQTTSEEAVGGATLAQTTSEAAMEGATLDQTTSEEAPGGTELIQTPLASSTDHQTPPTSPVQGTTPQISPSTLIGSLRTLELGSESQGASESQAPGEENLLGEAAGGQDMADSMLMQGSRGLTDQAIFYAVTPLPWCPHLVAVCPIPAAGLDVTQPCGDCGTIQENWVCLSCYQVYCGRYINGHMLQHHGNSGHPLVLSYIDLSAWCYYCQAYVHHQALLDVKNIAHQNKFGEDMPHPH

Full length Human HDAC8 = target: T2, Full length Human HDAC8 (Homo sapiens, UniProt Q9BY41); experiment: Caliper endpoint assay for HDAC enzymatic activity (HDAC8); type: biochemical; conditions: in vitro enzymatic, 30 min pre-incubation, 1 μM substrate peptide
T2 construct: Full length Human HDAC8; HIS (N); host or cells: baculovirus expression system
T2 sequence (Q9BY41 1-377): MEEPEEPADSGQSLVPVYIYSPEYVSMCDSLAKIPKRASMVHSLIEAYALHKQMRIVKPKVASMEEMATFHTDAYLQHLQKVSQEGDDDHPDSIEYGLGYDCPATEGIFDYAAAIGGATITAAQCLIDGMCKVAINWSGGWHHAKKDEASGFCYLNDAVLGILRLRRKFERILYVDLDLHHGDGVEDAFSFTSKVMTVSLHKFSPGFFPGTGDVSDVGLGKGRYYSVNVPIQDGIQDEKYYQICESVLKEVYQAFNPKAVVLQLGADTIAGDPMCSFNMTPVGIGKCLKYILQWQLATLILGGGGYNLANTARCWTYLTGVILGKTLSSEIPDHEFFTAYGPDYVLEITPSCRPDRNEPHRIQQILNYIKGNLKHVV

Row | SMILES | IC50 (Full length Human HDAC6) [nM] | IC50 (Full length Human HDAC8) [nM] | Selectivity (6 v 8) (Full length Human HDAC6)
1 | Cc1cc2c(cc1C(=O)NO)CCN(C1CC3(CCCCC3)C1)C2 | > 100000 | 10000 to 100000 | V (V: >1000)
2 | O=C(NO)c1cc(F)c2c(c1)C[C@@H]1CCCN1C2 (single isomer, unassigned) [Compound 119] | 100 to 1000 | 10000 to 100000 | III (III: >10-100)
3 | CC1(C)C[C@H]2Cc3cc(C(=O)NO)cc(F)c3CN2C1 (single isomer, unassigned) [Compound 125] |  |  | III (III: >10-100)
4 | O=C(NO)c1cc(F)c2c(c1)C[C@@H]1COCCN1C2 (single isomer, unassigned) [Compound 129] | 10000 to 100000 | > 100000 | 
5 | O=C(NO)c1cc(F)c2c(c1)C[C@H]1COCCN1C2 (single isomer, unassigned) [Compound 130] | 10000 to 100000 | > 100000 | 
6 | O=C(NO)c1cc(F)c2c(c1)CCN1CCCC[C@H]21 (single isomer, unassigned) [Compound 140] | 1000 to 10000 | 10000 to 100000 | 
7 | C[C@H]1CC[C@@H]2c3c(F)cc(C(=O)NO)cc3CCN21 (single isomer, unassigned) [Compound 159] | 100 to 1000 | 1000 to 10000 | 
8 | CN1Cc2cc(C(=O)NO)ccc2[C@@H]2CCCN21 (single isomer, unassigned) [Compound 160] | 100 to 1000 | 100 to 1000 | 
9 | CN1Cc2cc(C(=O)NO)ccc2[C@H]2CCCN21 (single isomer, unassigned) [Compound 161] | 100 to 1000 | 1000 to 10000 | 
10 | O=C(NO)c1ccc2c(c1)CN1CCC[C@@H]21 (single isomer, unassigned) [Compound 165] |  |  | III (III: >10-100)
11 | CC[C@@H]1N(Cc2ccc(C(=O)NO)cc2F)CC12CCCC2 (single isomer, unassigned) [Compound 168] | 100 to 1000 | 1000 to 10000 | 
12 | O=C(NO)c1cc(F)c(CN2C3CCC2COC3)cc1F [Compound 50] |  |  | III (III: >10-100)
13 | O=C(NO)c1ccc(CN2C3CCCC2COC3)c(F)c1 [Compound 52] |  |  | III (III: >10-100)
14 | CN1CC2CCC(C1)N2Cc1ccc(C(=O)NO)cc1F [Compound 56] |  |  | III (III: >10-100)
15 | O=C(NO)c1ccc(CN2C3CCC2COC3)c(F)c1 [Compound 59] |  |  | III (III: >10-100)
16 | O=C(NO)c1ccc(CN2C3CCCC2CCC3)c(F)c1 [Compound 60] |  |  | II (II: >1-10)
17 | O=C(NO)c1ccc(CN2C3CCCC2CC3)c(F)c1 [Compound 61] |  |  | II (II: >1-10)
18 | O=C1CC2CCCC(C1)N2Cc1ccc(C(=O)NO)cc1F [Compound 62] |  |  | III (III: >10-100)
19 | O=C1CC2CCC(C1)N2Cc1ccc(C(=O)NO)cc1F [Compound 63] |  |  | III (III: >10-100)
20 | O=C(NO)c1ccc(CN2CCC3(CCCCC3)C2)c(F)c1 [Compound 75, 4-((2-Azaspiro[4.5]decan-2-yl)methyl)-3-fluoro-N-hydroxybenzamide] |  |  | III (III: >10-100)

Continued, in another order:

Row | IC50 (Full length Human HDAC6) [nM] | IC50 (Full length Human HDAC8) [nM] | SMILES | Selectivity (6 v 8) (Full length Human HDAC6)
21 | 1 to 100 | 10000 to 100000 | O=C(NO)c1cc(F)c2c(c1)CCN(C[C@@H]1CCC3(CCCCC3)C1)C2 (single isomer, unassigned) [Compound 107] | 
22 | 1 to 100 | 10000 to 100000 | O=C(NO)c1cc(F)c2c(c1)CCN(C[C@H]1CCC3(CCCCC3)C1)C2 (single isomer, unassigned) [Compound 108] | 
23 | 1 to 100 | 10000 to 100000 | O=C(NO)c1cc(F)c2c(c1)CCN([C@H]1CCC3(CCCCC3)C1)C2 (single isomer, unassigned) [Compound 109] | 
24 | 1 to 100 | 10000 to 100000 | O=C(NO)c1cc(F)c2c(c1)CCN([C@@H]1CCC3(CCCCC3)C1)C2 (single isomer, unassigned) [Compound 110] | 
25 | 1 to 100 | 1000 to 10000 | O=C(NO)c1ccc2c(c1)C[C@H]1COCC(=O)N1C2 (single isomer, unassigned) [Compound 134] | 
26 | 100 to 1000 | 1000 to 10000 | O=C(NO)c1cc(F)c2c(c1)C[C@H]1CC3(CCCCC3)CN1C2 (single isomer, unassigned) [Compound 135] | 
27 | 1 to 100 | 1000 to 10000 | O=C(NO)c1cc(F)c2c(c1)C[C@@H]1CC3(CCCCC3)CN1C2 (single isomer, unassigned) [Compound 136] | 
28 | 100 to 1000 | 10000 to 100000 | O=C(NO)c1cc(F)c2c(c1)C[C@@H]1CCC3(CCCCC3)CN1C2 (single isomer, unassigned) [Compound 137] | 
29 | 1 to 100 | 1000 to 10000 | O=C(NO)c1cc(F)c2c(c1)CCN1CCCC[C@@H]21 (single isomer, unassigned) [Compound 139] | 
30 | 1 to 100 | 1000 to 10000 | C[C@@H]1C[C@@H]2c3c(F)cc(C(=O)NO)cc3CCN2C1 (single isomer, unassigned) [Compound 151] | 
31 | 1 to 100 | 1000 to 10000 | C[C@@H]1C[C@H]2c3c(F)cc(C(=O)NO)cc3CCN2C1 (single isomer, unassigned) [Compound 152] | 
32 | 100 to 1000 | 1000 to 10000 | C[C@H]1C[C@@H]2c3c(F)cc(C(=O)NO)cc3CCN2C1 (single isomer, unassigned) [Compound 153] | 
33 | 100 to 1000 | 1000 to 10000 | C[C@H]1C[C@H]2c3c(F)cc(C(=O)NO)cc3CCN2C1 (single isomer, unassigned) [Compound 154] | 
34 | 100 to 1000 | 1000 to 10000 | C[C@@H]1CC[C@@H]2c3c(F)cc(C(=O)NO)cc3CCN12 (single isomer, unassigned) [Compound 156] | 
35 | 1 to 100 | 1000 to 10000 | C[C@H]1CC[C@H]2c3c(F)cc(C(=O)NO)cc3CCN12 (single isomer, unassigned) [Compound 157] | 
36 | 1 to 100 | 1000 to 10000 | C[C@@H]1CC[C@H]2c3c(F)cc(C(=O)NO)cc3CCN12 (single isomer, unassigned) [Compound 158] | 
37 | 1 to 100 | 10000 to 100000 | O=C(NO)c1cc(F)c2c(c1)CCN(C[C@@H]1CCCCO1)C2 (single isomer, unassigned) [Compound 174] | IV (IV: >100-1000)
38 | 1 to 100 | 10000 to 100000 | O=C(NO)c1cc(F)c2c(c1)CCN(C[C@H]1CCCCO1)C2 (single isomer, unassigned) [Compound 175] | IV (IV: >100-1000)
39 | 1 to 100 | 1000 to 10000 | O=C(NO)c1cc(F)c2c(c1)CCN([C@@H]1CCC3(CCCC3)C1)C2 (single isomer, unassigned) [Compound 184] | IV (IV: >100-1000)
40 | 1 to 100 | 10000 to 100000 | O=C(NO)c1cc(F)c2c(c1)CCN([C@H]1CCC3(CCCC3)C1)C2 (single isomer, unassigned) [Compound 185] | IV (IV: >100-1000)
41 | 1 to 100 | 10000 to 100000 | O=C(NO)c1cc(F)c2c(c1)CCN(C1CC3(CCOC3)C1)C2 (single isomer, unassigned) [Compound 188, 8-fluoro-N-hydroxy-2-(6-oxaspiro[3.4]octan-2-yl)-1,2,3,4-tetrahydroisoquinoline-6-carboxamide] | IV (IV: >100-1000)
42 | 1 to 100 | 10000 to 100000 | O=C(NO)c1cc(F)c2c(c1)CCN(C1CC3(CCOC3)C1)C2 (single isomer, unassigned) [Compound 189, 8-fluoro-N-hydroxy-2-(6-oxaspiro[3.4]octan-2-yl)-1,2,3,4-tetrahydroisoquinoline-6-carboxamide] | IV (IV: >100-1000)

— US12655106B2 (Eikonizo Therapeutics, Inc., priority 2021, dated 2026)
